Experimental data: publication PMC12427341, “Phytochemical-Mediated Modulation of Doramectin Pharmacology in Sheep: Exploring the Cinnamaldehyde–Pink Grapefruit Combination” (Animals : an Open Access Journal from MDPI, 2025)
Several values for one entry are separate records, joined by “and”; a condition that tells them apart may be missing. Identical values can stand only once. Marks after values point to notes of the source that are not given here.

How the values were obtained:
Ascaris suum = system: Ascaris suum; parameters: method as in PMID 26420588; settings: pigs; cited from earlier work
Syphacia muris = system: Syphacia muris; parameters: method as in doi:10.2478/acve-2018-0036; settings: rats infected with Syphacia muris; cited from earlier work
[1] = rats; cited from earlier work
Haemonchus spp. [2] = assay: Efficacy by nematode genus (coprocultures), trial 1; format: in vivo, Haemonchus contortus; settings: day 14, oral, lambs n = 9
Experimental: (§1) The coadministration of DRM and CNM–PGF, both by an oral emulsion, was evaluated in lambs. The trial involved 35 Corriedale and Texel crossbred lambs (mean body weight, 26 kg) naturally infected with resistant gastrointestinal nematodes and was conducted in a sheep experimental unit (Estación Experimental INTA, Balcarce, Argentina). There, a parasite control program based on the intensive use of antiparasitic drugs has been implemented for many years, leading to anthelmintic resistance to MLs and benzimidazoles. Animals were selected based on worm egg per gram counts (EPG), with an average EPG count of 2102 ± 1662. Animals were kept in a paddock and fed hay ad libitum, together with commercial concentrate feed. All animals had free access to water. Lambs were assigned to four experimental groups sorted by EPG count. Group A received an emulsion containing DRM (single dose of 0.2 mg/kg) (n = 9). Group B received CNM–PGF orally as an emulsion (two doses of 100 mg/kg every 24 h) (n = 9). Lambs of Group C were treated with an emulsion containing both DRM and CNM–PGF on the first day, and the second day, they received an emulsion of CNM–PGF only (n = 9). Group D included untreated lambs (n = 8). […] To evaluate the effect of the treatment, individual fecal samples from all the lambs were collected on days −1, 7, and 14 of treatment, and the fecal egg count reduction (FECR) was calculated. […]

[3] = Plasma pharmacokinetics of DRM after oral administration alone or with CNM–PGF or LPM; settings: DRM 0.2 mg/kg oral emulsion; sheep n = 7; mean ± SD
Experimental: (§2) An in vivo assay was performed to evaluate the pharmacokinetics and the efficacy of DRM orally administered alone or in combination with CNM–PGF and LPM against resistant gastrointestinal nematodes in lambs. For the trial, 27 naturally infected Corriedale and Texel crossbreed lambs (average weight, 33 kg) were used. On day −1, all lambs were checked for EPG and tagged, and the individual body weights were recorded. As in the previous assay (Trial 2.1), the selection of the animals was based on EPG. […] Lambs were housed in a paddock with access to hay, commercial concentrates, and water ad libitum. Lambs were assigned into three experimental groups. Group A received DRM (0.2 mg/kg) as an oral emulsion (n = 7). Lambs in groups B and C received an emulsion containing DRM (a single dose of 0.2 mg/kg) and either LPM (n = 7) (three oral doses of 0.3 mg/kg, every 24 h) or CNM–PGF (n = 7) (three oral doses containing 72 and 64 mg/kg of CNM and PGF, respectively, every 24 h). Group D served as the untreated control (n = 6). As appropriate, the final concentrations of the active ingredients within the formulations were DRM 5%, CNM 18%, PGF 16%, LPM 30%. The compounds were diluted in Tween-80 11%, sesame oil 1–30%, and distilled water. The formulations were prepared using a similar method to that used in the previously described trial (Trial 2.1).
(§3) For the plasma disposition of DRM, jugular blood samples (2 mL) were collected into heparinized vacutainer tubes before treatment and at 3, 6, 9, 24, 30, 48, and 54 h and 3, 4, 7, 10, and 14 days post treatment. Blood samples were centrifuged at 2000× g for 15 min; the recovered plasma was kept in labeled vials and stored at −20 °C until the analysis of DRM by high performance liquid chromatography (HPLC). The effect of each treatment was indirectly estimated by collecting fecal samples on days −1 and 14 of administration to evaluate the FECR.
(§4) Data are expressed as mean ± standard deviation (SD). Rho123 transport across the ileum is presented as ng of Rho123 in the receptor side of the chamber. The plasma concentration versus time curves obtained after treatment of each animal were fitted with the PK Solutions 2.0 software (summit Research Services, Ashland, OH, USA) software. Pharmacokinetic parameters were determined using a noncompartmental model method. The evaluation of the FECR was calculated according to the following formula [33], with modifications: FECR %=100 × (1−T2/T1) where T1 and T2 are the arithmetic mean EPG counts in the treated group on days 0 and 14, respectively. The 90% confidence intervals were calculated following the method of reference.

P-glycoprotein [4] = assay: Ex vivo intestinal transport of rhodamine 123 across sheep ileum (diffusion chamber model); settings: 4 h; for Peff M–S of Rho123 in the presence of the modulator: 0.5 µM Rho123, 5 µM DRM, 1.5 mM CNM–PGF or 50 µM LPM
Experimental: (§6) A series of ex vivo experiments were performed to evaluate the interaction of DRM, CNM–PGF, or LPM with ABC transporters. […] For this assay, sheep ileum samples were obtained from a local slaughterhouse (Ayacucho, Argentina). […] The incubation process was started immediately after obtaining the tissue. During the preparation and assembly process, intestinal tissue was always maintained between 0–4 °C. The tissue was then mounted vertically in a diffusion chamber with an internal surface area of 0.8 cm^2. […] Both the mucosal (M) and serosal (S) sides were filled with 7 and 5 mL of prewarmed and oxygenated Krebs buffer, respectively. […] During preparation, chambers were preincubated to slough off any dead cells, and during this period, the tissue were exposed in the donor side to the presence or absence of 5 µM of DRM; 1.5 mM of CNM–PGF; or 50 µM of LPM, a well-established P-gp modulator, which was used as a positive control [25, 26]. After a 20 min equilibration period, Krebs buffer was completely replaced with fresh medium fortified with 0.5 µM of Rho123 as a substrate to the M or S side of the chambers for measuring the absorption and secretion processes, respectively. Thus, Rho123 was incubated alone (control assays) or in the presence of DRM, CNM–PGF, or LPM. Tissues were incubated for 4 h, and each hour, aliquots of 1 mL were collected from the receptor side and replaced with fresh Krebs buffer.
(§7) Samples from the receptor side (1 mL) were mixed with 2 mL of distillated water to reach a final volume of 3 mL.
(§8) Values of unidirectional transepithelial effective permeability (Peff) (cm.s^−1) were calculated for each chamber according to the following equation: Peff=dC/dT1/A.C0
(§9) The appearance rate on the receiving compartment is dC/dT, calculated from the slope of the concentration versus time curve over a time period of 4 h (Rho123); A is the exposed area (cm^2) of the tissue in the Ussing chamber (0.8 cm^2), and C0 is the initial drug concentration (ng/mL) in the donor compartment. The efflux ratio (ER) was calculated as follows: ER=mean Peff S−M/mean Peff M−S
(§10) The intestinal absorption is represented by permeability in the M–S direction. The S–M side can also be used to measure permeability, in this case characterizes intestinal secretion. A higher Peff S–M compared to the Peff M–S is indicative of carrier-mediated transport.

Teladorsagia spp. [5] = assay: Efficacy by nematode genus, trial 2; format: in vivo; settings: day 14, oral, lambs n = 7
Source text: (§5) Lambs were assigned into three experimental groups. […] Group D served as the untreated control (n = 6).

Trichostrongylus spp. [6] = assay: Efficacy by nematode genus, trial 2; format: in vivo; settings: day 14, oral, lambs n = 7
Source text: as §5

Haemonchus spp. [7] = assay: Efficacy by nematode genus, trial 2; format: in vivo, Haemonchus contortus; settings: day 14, oral, lambs n = 7
Source text: as §5

[8] = system: resistant gastrointestinal nematodes; assay: Fecal egg count reduction test (FECRT), trial 2: DRM alone or with CNM–PGF or LPM; format: in vivo, lambs
Experimental: as §2, §3, §4
The statistical analysis was performed using Prism 8.0 (GraphPad Software, San Diego, CA, USA). ANOVA or Kruskal–Wallis tests were used for the statistical comparison. […]

[9] = parameters: method as in PMID 11106995; settings: sheep; cited from earlier work
Teladorsagia spp. [10] = assay: Efficacy by nematode genus (coprocultures), trial 1; format: in vivo; settings: day 14, oral, lambs n = 9
Experimental: as §1, with “8). The selected phytochemical dose was based on previous in vivo studies with other monoterpenes, such as thymol and carvone, which were administered to lambs at doses ranging from 100 to 150 mg/kg, without adverse effects. CNM–PGF was formulated as an emulsion composed of Tween-80/sesame oil (3:1) 20% at a final concentration of 15% CNM and 15% PGF. Briefly, the CNM–PGF emulsion was prepared using the high-energy ultrasonic method. CNM and PGF were mixed with sesame oil to form the oil phase. The oil phase was added dropwise to the aqueous phase containing Tween-80 and distillated water while stirring, and the emulsion formed was then subjected to ultrasonic emulsification for 15 min.” for “8).”

Cooperia spp. = assay: as above; format: in vivo; settings: day 14, oral, lambs n = 9
Experimental: as §1, with “8). The selected phytochemical dose was based on previous in vivo studies with other monoterpenes, such as thymol and carvone, which were administered to lambs at doses ranging from 100 to 150 mg/kg, without adverse effects. CNM–PGF was formulated as an emulsion composed of Tween-80/sesame oil (3:1) 20% at a final concentration of 15% CNM and 15% PGF. Briefly, the CNM–PGF emulsion was prepared using the high-energy ultrasonic method. CNM and PGF were mixed with sesame oil to form the oil phase. The oil phase was added dropwise to the aqueous phase containing Tween-80 and distillated water while stirring, and the emulsion formed was then subjected to ultrasonic emulsification for 15 min.” for “8).”

Trichostrongylus spp. [11] = assay: as above; format: in vivo; settings: day 14, oral, lambs n = 9
Experimental: as §1, with “8). The selected phytochemical dose was based on previous in vivo studies with other monoterpenes, such as thymol and carvone, which were administered to lambs at doses ranging from 100 to 150 mg/kg, without adverse effects. CNM–PGF was formulated as an emulsion composed of Tween-80/sesame oil (3:1) 20% at a final concentration of 15% CNM and 15% PGF. Briefly, the CNM–PGF emulsion was prepared using the high-energy ultrasonic method. CNM and PGF were mixed with sesame oil to form the oil phase. The oil phase was added dropwise to the aqueous phase containing Tween-80 and distillated water while stirring, and the emulsion formed was then subjected to ultrasonic emulsification for 15 min.” for “8).”

P-glycoprotein [12] = system: P-glycoprotein
Experimental: as §6, §7, §8, §9, §10

[13] = system: resistant gastrointestinal nematodes; assay: Fecal egg count reduction test (FECRT), trial 1: DRM, CNM–PGF and their combination as oral emulsions; format: in vivo, lambs
Experimental: The coadministration of DRM and CNM–PGF, both by an oral emulsion, was evaluated in lambs. The trial involved 35 Corriedale and Texel crossbred lambs (mean body weight, 26 kg) naturally infected with resistant gastrointestinal nematodes and was conducted in a sheep experimental unit (Estación Experimental INTA, Balcarce, Argentina). […] Animals were kept in a paddock and fed hay ad libitum, together with commercial concentrate feed. All animals had free access to water. Lambs were assigned to four experimental groups sorted by EPG count. Group A received an emulsion containing DRM (single dose of 0.2 mg/kg) (n = 9). Group B received CNM–PGF orally as an emulsion (two doses of 100 mg/kg every 24 h) (n = 9). Lambs of Group C were treated with an emulsion containing both DRM and CNM–PGF on the first day, and the second day, they received an emulsion of CNM–PGF only (n = 9). Group D included untreated lambs (n = 8). […] CNM–PGF was formulated as an emulsion composed of Tween-80/sesame oil (3:1) 20% at a final concentration of 15% CNM and 15% PGF. Briefly, the CNM–PGF emulsion was prepared using the high-energy ultrasonic method. CNM and PGF were mixed with sesame oil to form the oil phase. The oil phase was added dropwise to the aqueous phase containing Tween-80 and distillated water while stirring, and the emulsion formed was then subjected to ultrasonic emulsification for 15 min. The same steps were performed for the DRM + CNM–PGF emulsion, the synthetic compound was added to the oil phase, and their final concentration was 0.03%. […] To evaluate the effect of the treatment, individual fecal samples from all the lambs were collected on days −1, 7, and 14 of treatment, and the fecal egg count reduction (FECR) was calculated. The coprocultures were prepared with 10 g of feces from a pool of each experimental group obtained on days −1 and 14. The nematode genera and species were identified through the third-stage larvae recovered from the coprocultures.
as §4
The statistical analysis was performed using Prism 8.0 (GraphPad Software, San Diego, CA, USA). ANOVA or Kruskal–Wallis tests were used for the statistical comparison. Tukey or Dunn tests were used for post hoc multiple comparisons. The egg counts obtained for each treatment on Day 14 were compared with the corresponding baseline counts on Day 0 using the Wilcoxon matched-pairs signed rank test. Differences were considered statistically significant at p < 0.05.

[14] = system: gastrointestinal nematodes; settings: cited from earlier work; for Efficacy of single phytochemicals: sheep, low to moderate efficacy
C. elegans = system: C. elegans; parameters: method as in doi:10.1155/2020/1740938; settings: in vitro exposure; cited from earlier work
P-glycoprotein [15] = assay: in vitro; settings: Corriedale and Texel crossbreed, sheep
Experimental: as §6, §7, §8, §9, §10

[16] = day 14, lower-upper confidence limit

## O=C/C=C/c1ccccc1 [CNM, cinnamaldehyde]
Ascaris suum
  In vivo anthelmintic effect: failed to exert any in vivo anthelmintic effect
Syphacia muris
  In vivo efficacy: no in vivo efficacy was observed
[1]
  Oral LD50: approximately 2220 mg/kg

## CO[C@H]1C[C@H](O[C@H]2[C@H](C)O[C@@H](O[C@@H]3/C(C)=C/C[C@@H]4C[C@@H](C[C@]5(C=C[C@H](C)[C@@H](C6CCCCC6)O5)O4)OC(=O)[C@@H]4C=C(C)[C@@H](O)[C@H]5OC/C(=C\C=C\[C@@H]3C)[C@]54O)C[C@@H]2OC)O[C@@H](C)[C@@H]1O [DRM, doramectin]
Haemonchus spp. [2]
  Efficacy (%) against Haemonchus spp.: 0%
[3]
  AUC0–t of DRM in plasma: 90.84 ± 33.61 ^a ng d/mL
  Cmax of DRM in plasma: 25.76 ± 10.01 ^a ng/mL
  T max of DRM in plasma: 0.93 ± 0.47 ^a days
  T ½ el (elimination half-life) of DRM: 2.19 ± 0.41 ^a days
P-glycoprotein [4]
  Peff M–S of Rho123 in the presence of the modulator: 3.83 ± 1.87 ×10⁻⁶ cm/s
Teladorsagia spp. [5]
  Efficacy (%) against Teladorsagia spp.: 82%
Trichostrongylus spp. [6]
  Efficacy (%) against Trichostrongylus spp.: 100%
Haemonchus spp. [7]
  Efficacy (%) against Haemonchus spp.: 0%
[8]; 14 days after oral DRM 0.2 mg/kg, LPM three doses of 0.3 mg/kg, CNM–PGF three doses of 72 and 64 mg/kg, every 24 h, lambs n = 7
  Mean egg per gram (EPG) counts (±SD), Day 14: 694 ± 944 EPG and 694 ± 944 ^aB EPG
[8]; baseline before treatment, lambs n = 7, mean ± SD
  Mean egg per gram (EPG) counts (±SD), Day 0: 1586 ± 984 ^aA EPG
[8]; [16]
  FECR (LCL-UCL), 90% confidence interval: (9–88) %
[8]; day 14, oral emulsion, lambs n = 7
  FECR (%): 56%
[9]
  Absolute oral bioavailability: 25%
Teladorsagia spp. [10]
  Efficacy (%) against Teladorsagia spp.: 100%
Cooperia spp.
  Efficacy (%) against Cooperia spp.: 100%
Trichostrongylus spp. [11]
  Efficacy (%) against Trichostrongylus spp.: 100%
P-glycoprotein [12]
  Efflux ratio (ER) of Rho123 in the presence of the modulator: 4.66
[13]; 14 days after oral administration, DRM 0.2 mg/kg single dose, CNM–PGF two doses of 100 mg/kg every 24 h, lambs n = 9
  Mean egg per gram (EPG) counts (±SD), Day 14: 910 ± 2548 EPG and 910 ± 2548 ^abB EPG
[13]; baseline before treatment, lambs n = 9, mean ± SD
  Mean egg per gram (EPG) counts (±SD), Day 0: 2716 ± 2641 ^aA EPG
[13]; day 14
  Prevalence of egg count negativization (percentage of animals with an egg count of zero): 40%
[13]; [16]
  FECR (LCL-UCL), 90% confidence interval: (0–98) %
[13]; day 14, oral emulsion, lambs n = 9
  FECR (%): 66%

## CN(C)C(=O)C(CCN1CCC(O)(c2ccc(Cl)cc2)CC1)(c1ccccc1)c1ccccc1 [LPM, loperamide]
P-glycoprotein [4]
  Peff M–S of Rho123 in the presence of the modulator: 3.84 ± 1.02 ×10⁻⁶ cm/s

## C=C(C)[C@H]1CC=C(C)CC1 [Limonene, limonene]
[14]; long-term administration through feed, coadministered with a single dose of ivermectin, adult nematode number unaffected
  FECR: 82%
C. elegans
  Survival rate of C. elegans: 30%

## COC(=O)c1ccccc1-c1c2ccc(=N)cc-2oc2cc(N)ccc12 [Rho123, rhodamine 123]
P-glycoprotein [15]
  efflux ratio at 4 h, 0.5 µM: 10.3
P-glycoprotein [4]; 0.5 µM Rho123 alone (control)
  Rho123 absorption, Peff M–S: 1.39 ± 0.343 ×10⁻⁶ cm/s
  Rho123 secretion, Peff S–M: 11.1 ± 3.64 ×10⁻⁶ cm/s

## C=C(C)C1CC=C(C)C(=O)C1 (stereo not shown) [carvone]
[14]
  Efficacy of single phytochemicals: 0–47%

## Cc1ccc(C(C)C)c(O)c1 [thymol]
[14]
  Efficacy of single phytochemicals: 0–47%
